# Reference: patent US6737383B1, “Herbicidal oxadiazolidines” (priority 1999, dated 2004)
# Key:
# purple nutsedge = assay: Test B pre/postemergence purple nutsedge; format: in vivo, Cyperus rotundus
# Summary of the method: (§1)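 Test chemicals in a non-phytotoxic solvent mixture with surfactant were sprayed preemergence onto planted seeds and postemergence onto plants 2 to 18 cm tall (1- to 4-leaf stage). After twelve to sixteen days in a greenhouse, injury was visually rated against untreated controls from 0 (no effect) to 10 (complete control).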
# wild oat = assay: Test B pre/postemergence wild oat; format: in vivo, Avena fatua
# Summary of the method: as §1
# duck salad = assay: Test B flood test duck salad; format: in vivo, Heteranthera limosa
# Summary of the method: (§2)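 Read-out is a visual response score from 0 (no effect) to 10 (complete control), assigned by comparison with untreated controls. Treatment was applied at the 2-leaf stage, and plants stayed in the greenhouse for twelve to sixteen days before scoring.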
# cocklebur = assay: Test B pre/postemergence cocklebur; format: in vivo, Xanthium strumarium
# Summary of the method: as §1
# wheat = assay: Test B pre/postemergence wheat; format: in vivo, Triticum aestivum
# Summary of the method: as §1
# rice = assay: Test B flood test rice; format: in vivo, Oryza sativa
# Summary of the method: as §2
# bamyardgrass = assay: Test B flood test barnyardgrass; format: in vivo, Echinochloa crus-galli
# Summary of the method: as §2
# pigweed = assay: Test B pre/postemergence pigweed; format: in vivo, Amaranthus retroflexus
# Summary of the method: as §1
# corn = assay: Test B pre/postemergence corn; format: in vivo, Zea mays
# Summary of the method: as §1
# rape = assay: Test B pre/postemergence rape; format: in vivo, Brassica napus
# Summary of the method: as §1
# blackgrass = assay: Test B pre/postemergence blackgrass; format: in vivo, Alopecurus myosuroides
# Summary of the method: as §1
# velvetleaf = assay: Test B pre/postemergence velvetleaf; format: in vivo, Abutilon theophrasti
# Summary of the method: as §1
# surinam grass = assay: Test B pre/postemergence surinam grass; format: in vivo, Brachiaria decumbens
# Summary of the method: as §1
# smallflower flatsedge = assay: Test B flood test smallflower flatsedge; format: in vivo, Cyperus difformis
# Summary of the method: as §2
# bedstraw = assay: Test B pre/postemergence bedstraw; format: in vivo, Galium aparine
# Summary of the method: as §1
# morningglory = assay: Test B pre/postemergence morningglory; format: in vivo, Ipomoea hederacea
# Summary of the method: as §1
# [1] = Preemergence, Rate 62 g/ha, scale of 0 to 10 where 0 is no effect and 10 is complete control
# [2] = Preemergence, Rate 250 g/ha, scale of 0 to 10 where 0 is no effect and 10 is complete control
# [3] = Preemergence, Rate 500 g/ha, scale of 0 to 10 where 0 is no effect and 10 is complete control
# [4] = Rate 62 g/ha, Postemergence, scale 0 to 10 (0 no effect, 10 complete control)
# [5] = Rate 125 g/ha, Postemergence, scale of 0 to 10 where 0 is no effect and 10 is complete control
# [6] = Rate 250 g/ha, Postemergence, scale of 0 to 10 where 0 is no effect and 10 is complete control
# [7] = Rate 62 g/ha, headed Pre-emergence (flood test species), scale 0 to 10 (0 no effect, 10 complete control)
# [8] = Rate 125 g/ha, Pre-emergence, flood test species, scale 0 to 10 where 0 is no effect and 10 is complete control
# [9] = Rate 250 g/ha, Pre-emergence, flood-test species, scale 0 to 10, 0 is no effect, 10 is complete control
# [10] = Rate 500 g/ha, Pre-emergence, flood test species, scale 0 to 10 (0 no effect, 10 complete control)
# [11] = Rate 500 g/ha, Postemergence, scale 0 to 10, 0 no effect, 10 complete control
compound,measurement,setting,value
CCc1cccc(CC)c1-n1c(=O)on(C(=O)N(c2ccc(F)cc2)C(C)C)c1=O [Compound 304],Nutsedge plant response rating,purple nutsedge; [1],0
same,Nutsedge plant response rating (0 to 10 scale),"purple nutsedge; Preemergence, Rate 125 g/ha",0
same,Nutsedge plant response rating,purple nutsedge; [2],0
same,Nutsedge plant response rating,purple nutsedge; [3],0
same,Nutsedge plant response rating,purple nutsedge; [4],0
same,Nutsedge plant response rating,purple nutsedge; [5],0
same,"Plant response rating, Nutsedge",purple nutsedge; [6],0
same,Wild oats plant response rating,wild oat; [1],0
same,Wild oats plant response rating (0 to 10 scale),"wild oat; Preemergence, Rate 125 g/ha",0
same,Wild oats plant response rating,wild oat; [2],0
same,Wild oats plant response rating,wild oat; [3],0
same,Wild oats plant response rating,wild oat; [4],0
same,Wild oats plant response rating,wild oat; [5],0
same,"Plant response rating, Wild oats",wild oat; [6],0
same,Ducksalad plant response rating,duck salad; [7],0
same,Ducksalad plant response rating,duck salad; [8],0
same,Ducksalad plant response rating,duck salad; [9],0
same,Ducksalad plant response rating,duck salad; [10],0
same,Cocklebur plant response rating (0 to 10 scale),"cocklebur; Preemergence, Rate 125 g/ha",0
same,Cocklebur plant response rating,cocklebur; [2],0
same,Cocklebur plant response rating,cocklebur; [3],0
same,Cocklebur plant response rating,cocklebur; [4],0
same,Cocklebur plant response rating,cocklebur; [5],0
same,"Plant response rating, Cocklebur",cocklebur; [6],0
same,Cocklebur plant response rating,cocklebur; [11],0
same,Wheat plant response rating,wheat; [1],0
same,Wheat plant response rating (0 to 10 scale),"wheat; Preemergence, Rate 125 g/ha",0
same,Wheat plant response rating,wheat; [2],0
same,Wheat plant response rating,wheat; [3],0
same,Wheat plant response rating,wheat; [4],0
same,Wheat plant response rating,wheat; [5],0
same,"Plant response rating, Wheat",wheat; [6],0
same,Rice plant response rating,rice; [7],0
same,Rice plant response rating,rice; [8],0
same,Rice plant response rating,rice; [9],0
same,Rice plant response rating,rice; [10],0
same,Barnyardgrass plant response rating,bamyardgrass; [7],0
same,Barnyardgrass plant response rating,bamyardgrass; [8],0
same,Barnyardgrass plant response rating,bamyardgrass; [9],0
same,Barnyardgrass plant response rating,bamyardgrass; [10],4
same,Redroot pigweed plant response rating,pigweed; [1],0
same,Redroot pigweed plant response rating (0 to 10 scale),"pigweed; Preemergence, Rate 125 g/ha",0
same,Redroot pigweed plant response rating,pigweed; [2],0
same,Redroot pigweed plant response rating,pigweed; [3],0
same,Redroot pigweed plant response rating,pigweed; [4],3
same,Redroot pigweed plant response rating,pigweed; [5],3
same,"Plant response rating, Redroot pigweed",pigweed; [6],5
same,Corn plant response rating,corn; [1],0
same,Corn plant response rating (0 to 10 scale),"corn; Preemergence, Rate 125 g/ha",0
same,Corn plant response rating,corn; [2],0
same,Corn plant response rating,corn; [3],0
same,Corn plant response rating,corn; [4],0
same,Corn plant response rating,corn; [5],0
same,"Plant response rating, Corn",corn; [6],0
same,Corn plant response rating,corn; [11],0
same,Rape plant response rating,rape; [1],0
same,Rape plant response rating (0 to 10 scale),"rape; Preemergence, Rate 125 g/ha",0
same,Rape plant response rating,rape; [2],0
same,Rape plant response rating,rape; [3],0
same,Rape plant response rating,rape; [4],0
same,Rape plant response rating,rape; [5],0
same,"Plant response rating, Rape",rape; [6],0
same,Blackgrass plant response rating,blackgrass; [1],0
same,Blackgrass plant response rating (0 to 10 scale),"blackgrass; Preemergence, Rate 125 g/ha",0
same,Blackgrass plant response rating,blackgrass; [2],0
same,Blackgrass plant response rating,blackgrass; [3],0
same,Blackgrass plant response rating,blackgrass; [4],0
same,Blackgrass plant response rating,blackgrass; [5],0
same,"Plant response rating, Blackgrass",blackgrass; [6],0
same,Blackgrass plant response rating,blackgrass; [11],4
same,Velvetleaf plant response rating,velvetleaf; [1],0
same,Velvetleaf plant response rating (0 to 10 scale),"velvetleaf; Preemergence, Rate 125 g/ha",0
same,Velvetleaf plant response rating,velvetleaf; [2],0
same,Velvetleaf plant response rating,velvetleaf; [3],0
same,Velvetleaf plant response rating,velvetleaf; [4],0
same,Velvetleaf plant response rating,velvetleaf; [5],0
same,"Plant response rating, Velvetleaf",velvetleaf; [6],0
same,B. signalgrass plant response rating,surinam grass; [1],0
same,"B. signalgrass plant response rating (0 to 10 scale, 0 is no effect, 10 is complete control)","surinam grass; Preemergence, Rate 125 g/ha",0
same,B. signalgrass plant response rating,surinam grass; [2],0
same,B. signalgrass plant response rating,surinam grass; [3],0
same,B. signalgrass plant response rating,surinam grass; [4],0
same,B. signalgrass plant response rating,surinam grass; [5],0
same,"Plant response rating, B. signalgrass",surinam grass; [6],0
same,B. signalgrass plant response rating,surinam grass; [11],0
same,S. Flatsedge plant response rating,smallflower flatsedge; [7],0
same,S. Flatsedge plant response rating,smallflower flatsedge; [8],0
same,S. Flatsedge plant response rating,smallflower flatsedge; [9],0
same,S. Flatsedge plant response rating,smallflower flatsedge; [10],0
same,Bedstraw plant response rating,bedstraw; [1],0
same,Bedstraw plant response rating (0 to 10 scale),"bedstraw; Preemergence, Rate 125 g/ha",0
same,Bedstraw plant response rating,bedstraw; [2],0
same,Bedstraw plant response rating,bedstraw; [3],0
same,Bedstraw plant response rating,bedstraw; [4],0
same,Bedstraw plant response rating,bedstraw; [5],0
same,Morningglory plant response rating,morningglory; [1],0
same,Morningglory plant response rating (0 to 10 scale),"morningglory; Preemergence, Rate 125 g/ha",0
same,Morningglory plant response rating,morningglory; [2],0
same,Morningglory plant response rating,morningglory; [3],0
same,Morningglory plant response rating,morningglory; [4],3
same,Morningglory plant response rating,morningglory; [5],3
same,"Plant response rating, Morningglory",morningglory; [6],3
